These results are taken from patent publication US12172995B2, “Substituted indole and indazole compounds” (BRISTOL-MYERS SQUIBB COMPANY, priority 2018, dated 2024).

Common to all, as to assay type: cell-based
One experiment deals with T1, human TLR8 (Homo sapiens, UniProt Q9NR97).
T1 construct: host or cells: HEK-Blue cells
T1 sequence (Q9NR97 27-1041): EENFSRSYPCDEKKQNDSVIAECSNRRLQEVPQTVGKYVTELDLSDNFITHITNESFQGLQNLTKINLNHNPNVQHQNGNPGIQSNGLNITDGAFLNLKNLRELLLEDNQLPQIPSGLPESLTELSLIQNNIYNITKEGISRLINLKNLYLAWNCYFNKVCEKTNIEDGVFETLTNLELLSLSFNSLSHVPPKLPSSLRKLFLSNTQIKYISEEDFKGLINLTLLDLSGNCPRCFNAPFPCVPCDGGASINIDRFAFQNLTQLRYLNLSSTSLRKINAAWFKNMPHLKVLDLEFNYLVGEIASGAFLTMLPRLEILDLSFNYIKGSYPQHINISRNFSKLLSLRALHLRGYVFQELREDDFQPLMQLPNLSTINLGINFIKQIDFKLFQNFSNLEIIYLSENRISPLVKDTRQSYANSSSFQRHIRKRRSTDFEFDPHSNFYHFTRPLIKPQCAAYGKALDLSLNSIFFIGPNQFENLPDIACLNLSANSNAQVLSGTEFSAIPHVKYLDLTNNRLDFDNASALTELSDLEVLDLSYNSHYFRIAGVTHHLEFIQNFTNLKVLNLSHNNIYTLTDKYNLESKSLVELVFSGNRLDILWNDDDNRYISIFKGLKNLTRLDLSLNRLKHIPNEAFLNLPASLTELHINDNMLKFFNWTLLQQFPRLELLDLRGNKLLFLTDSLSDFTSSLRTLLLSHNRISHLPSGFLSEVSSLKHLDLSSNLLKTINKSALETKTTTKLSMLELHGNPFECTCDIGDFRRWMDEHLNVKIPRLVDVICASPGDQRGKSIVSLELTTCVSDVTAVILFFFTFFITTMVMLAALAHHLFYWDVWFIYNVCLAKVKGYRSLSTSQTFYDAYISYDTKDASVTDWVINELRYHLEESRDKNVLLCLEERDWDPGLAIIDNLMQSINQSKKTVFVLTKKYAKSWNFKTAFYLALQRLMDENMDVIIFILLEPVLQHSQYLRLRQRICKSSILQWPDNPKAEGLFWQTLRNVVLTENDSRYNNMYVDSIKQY
The experiment in a line: TLR8 inhibition reporter assay (HEK-Blue SEAP). The following applies: HEK-Blue cells overexpressing human TLR8, stimulated with R848 15.9 μM, 22 hour incubation. As to the method: (§1) TLR7/8/9 Inhibition Reporter Assays
(§2) HEK-Blue™-cells (Invivogen) overexpressing human TLR7, TLR8 or TLR9 receptors were used for screening inhibitors of these receptors using an inducible SEAP (secreted embryonic alkaline phosphatase) reporter gene under the control of the IFN-β minimal promoter fused to five NF-κB and AP-1-binding sites. Briefly, cells are seeded into Greiner 384 well plates (15000 cells per well for TLR7, 20,000 for TLR8 and 25,000 for TLR9) and then treated with test compounds in DMSO to yield a final dose response concentration range of 0.05 nM to 50 μM. After a 30 minute compound pre-treatment at room temperature, the cells are then stimulated with a TLR7 ligand (gardiquimod at a final concentration of 7.5 μM), TLR8 ligand (R848 at a final concentration of 15.9 μM) or TLR9 ligand (ODN2006 at a final concentration of 5 nM) to activate NF-κB and AP-1 which induce the production of SEAP. After a 22 hour incubation at 37° C., 5% CO2, SEAP levels are determined with the addition of HEK-Blue™ Detection reagent (Invivogen), a cell culture medium that allows for detection of SEAP, according to manufacturer's specifications. The percent inhibition is determined as the % reduction in the HEK-Blue signal present in wells treated with agonist plus DMSO alone compared to wells treated with a known inhibitor.

Another experiment addresses T2, human TLR7 (Homo sapiens, UniProt Q9NYK1).
T2 construct: host or cells: HEK-Blue cells
T2 sequence (Q9NYK1 27-1049): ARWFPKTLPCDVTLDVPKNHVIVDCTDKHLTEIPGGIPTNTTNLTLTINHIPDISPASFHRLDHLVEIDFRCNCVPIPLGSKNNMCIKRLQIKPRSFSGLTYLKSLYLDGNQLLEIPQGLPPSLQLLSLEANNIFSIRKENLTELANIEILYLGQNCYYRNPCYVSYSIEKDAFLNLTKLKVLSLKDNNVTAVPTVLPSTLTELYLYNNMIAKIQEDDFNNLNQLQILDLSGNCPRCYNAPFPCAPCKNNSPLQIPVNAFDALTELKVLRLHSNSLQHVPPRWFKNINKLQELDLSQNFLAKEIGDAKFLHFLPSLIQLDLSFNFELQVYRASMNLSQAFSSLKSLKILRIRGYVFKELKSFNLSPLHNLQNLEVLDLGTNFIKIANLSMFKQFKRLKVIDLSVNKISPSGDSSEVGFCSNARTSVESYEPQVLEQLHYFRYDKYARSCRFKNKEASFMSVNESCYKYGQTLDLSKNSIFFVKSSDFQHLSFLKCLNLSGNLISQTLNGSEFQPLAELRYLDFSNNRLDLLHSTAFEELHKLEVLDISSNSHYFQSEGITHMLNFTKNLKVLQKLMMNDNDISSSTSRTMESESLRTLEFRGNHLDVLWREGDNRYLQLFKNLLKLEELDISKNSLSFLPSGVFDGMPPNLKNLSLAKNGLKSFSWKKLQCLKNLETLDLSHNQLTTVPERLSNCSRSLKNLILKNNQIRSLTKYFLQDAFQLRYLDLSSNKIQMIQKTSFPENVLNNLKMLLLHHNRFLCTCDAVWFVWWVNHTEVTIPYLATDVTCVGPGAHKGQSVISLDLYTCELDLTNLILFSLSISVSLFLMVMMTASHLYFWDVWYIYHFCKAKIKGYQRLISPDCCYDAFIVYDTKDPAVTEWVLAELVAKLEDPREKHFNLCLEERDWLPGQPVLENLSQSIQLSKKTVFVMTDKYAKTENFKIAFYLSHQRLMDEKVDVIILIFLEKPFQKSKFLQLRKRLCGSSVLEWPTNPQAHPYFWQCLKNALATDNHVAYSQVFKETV
Kind of experiment: TLR7 inhibition reporter assay (HEK-Blue SEAP). The following applies: HEK-Blue cells overexpressing human TLR7, stimulated with gardiquimod 7.5 μM, 22 hour incubation. As to the method:
as §1, §2
(In general: Reporter assays use an easily measured gene product as a stand-in for the process of interest.)

The next experiment concerns the target T3, human TLR9 (Homo sapiens, UniProt Q9NR96).
T3 construct: host or cells: HEK-Blue cells
T3 sequence (Q9NR96 26-1032): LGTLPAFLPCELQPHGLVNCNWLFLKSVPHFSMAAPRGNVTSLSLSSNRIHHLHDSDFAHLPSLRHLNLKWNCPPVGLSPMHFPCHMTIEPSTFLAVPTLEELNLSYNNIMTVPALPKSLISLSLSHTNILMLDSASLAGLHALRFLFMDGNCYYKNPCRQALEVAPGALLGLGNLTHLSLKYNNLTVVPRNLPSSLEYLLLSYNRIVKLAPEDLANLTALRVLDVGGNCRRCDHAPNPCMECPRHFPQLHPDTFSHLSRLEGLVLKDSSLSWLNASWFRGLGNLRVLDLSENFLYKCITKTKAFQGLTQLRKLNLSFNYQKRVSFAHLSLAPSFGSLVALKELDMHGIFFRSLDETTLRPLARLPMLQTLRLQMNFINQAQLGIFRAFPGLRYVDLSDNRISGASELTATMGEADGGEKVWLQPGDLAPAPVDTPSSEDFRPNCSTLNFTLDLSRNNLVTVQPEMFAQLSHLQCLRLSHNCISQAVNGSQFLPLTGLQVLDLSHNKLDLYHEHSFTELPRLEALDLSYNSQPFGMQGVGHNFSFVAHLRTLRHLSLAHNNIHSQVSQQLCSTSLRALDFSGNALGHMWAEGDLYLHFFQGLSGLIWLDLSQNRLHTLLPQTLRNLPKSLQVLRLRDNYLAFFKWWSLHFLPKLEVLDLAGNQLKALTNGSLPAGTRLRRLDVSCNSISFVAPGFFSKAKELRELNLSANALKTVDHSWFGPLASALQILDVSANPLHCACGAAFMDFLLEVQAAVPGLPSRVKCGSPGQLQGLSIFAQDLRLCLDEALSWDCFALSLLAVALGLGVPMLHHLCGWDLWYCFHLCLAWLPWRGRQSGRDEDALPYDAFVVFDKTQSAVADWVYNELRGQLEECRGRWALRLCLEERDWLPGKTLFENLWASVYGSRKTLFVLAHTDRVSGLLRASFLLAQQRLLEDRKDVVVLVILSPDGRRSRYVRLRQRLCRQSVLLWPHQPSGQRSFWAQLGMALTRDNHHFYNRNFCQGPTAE
The experiment in a line: TLR9 inhibition reporter assay (HEK-Blue SEAP). The following applies: HEK-Blue cells overexpressing human TLR9, stimulated with ODN2006 5 nM, 22 hour incubation. As to the method: as §1, §2

Regarding “5-methyl-6-(8-methyl-[1,2,4]triazolo[1,5-a]pyridin-6-yl)-N-(piperidin-4-yl)-1H-indazol-3-amine [Example 203]”, the figures for the IC50 against human TLR8, against human TLR7 and against human TLR9 were 2.1 nM, 51.7 nM and 1420 nM, respectively.

For the molecule `Cc1cc2c(C3CCC(N(C)C)CC3)n[nH]c2cc1-c1cc(C)c2ncnn2c1` (single isomer, unassigned) [Example 3, N,N-dimethyl-4-(5-methyl-6-(8-methyl-[1,2,4]triazolo[1,5-a]pyridin-6-yl)-1H-indazol-3-yl)cyclohexan-1-amine], the concentration for half-maximal inhibition (IC50) turned out to be 0.4 nM against human TLR8, 10.2 nM against human TLR7 and 1120 nM against human TLR9.

Regarding `Cc1cc2c(C3CCC(N(C)C)CC3)n[nH]c2cc1-c1cc(C)c2ncnn2c1` (single isomer, unassigned) [Example 4, N,N-dimethyl-4-(5-methyl-6-(8-methyl-[1,2,4]triazolo[1,5-a]pyridin-6-yl)-1H-indazol-3-yl)cyclohexan-1-amine], the IC50 against human TLR8 came to 0.7 nM; on human TLR7 it was 19.9 nM; against human TLR9 it was 2820 nM.

Turning to `Cc1cc(-c2cc3[nH]nc(C4CCC(NCC(=O)N(C)C)CC4)c3cc2C(C)C)cn2ncnc12` (single isomer, unassigned) [Example 124, 2-((4-(5-isopropyl-6-(8-methyl-[1,2,4]triazolo[1,5-a]pyridin-6-yl)-1H-indazol-3-yl)cyclohexyl)amino)-N,N-dimethylacetamide], the 50% inhibitory concentration (IC50) on human TLR7 amounted to 0.3 nM; at human TLR9, 11000 nM.

Take `Cc1cc(-c2cc3[nH]nc(C4CCC(N5CCC6(COC6)C5)CC4)c3cc2C(C)C)cn2ncnc12` (single isomer, unassigned) [Example 159, 6-(4-(5-isopropyl-6-(8-methyl-[1,2,4]triazolo[1,5-a]pyridin-6-yl)-1H-indazol-3-yl)cyclohexyl)-2-oxa-6-azaspiro[3.4]octane]: the concentration for half-maximal inhibition (IC50) on human TLR8 turned out to be 0.1 nM; against human TLR9, 7430 nM.

Consider `Cc1cc(-c2cc3[nH]nc(C4CCC(N5CCC6(COC6)C5)CC4)c3cc2C(C)C)cn2ncnc12` (single isomer, unassigned) [Example 160, 6-(4-(5-isopropyl-6-(8-methyl-[1,2,4]triazolo[1,5-a]pyridin-6-yl)-1H-indazol-3-yl)cyclohexyl)-2-oxa-6-azaspiro[3.4]octane], for which the figures for the IC50 against human TLR8 and against human TLR9 were 0.4 nM and 7300 nM, respectively.

`Cc1cc(-c2cc3[nH]nc(C4CCC(N5CCC(C)(O)C5)CC4)c3cc2C(C)C)cn2ncnc12` (single isomer, unassigned) [Example 165, 1-(4-(5-isopropyl-6-(8-methyl-[1,2,4]triazolo[1,5-a]pyridin-6-yl)-1H-indazol-3-yl)cyclohexyl)-3-methylpyrrolidin-3-ol]: the figures for the IC50 at human TLR7 and against human TLR9 were 0.5 nM and 13300 nM, respectively.

`Cc1cc2cn[nH]c2cc1-c1cc(C)c2ncnn2c1` [Example 63, 8-methyl-6-(5-methyl-1H-indazol-6-yl)-[1,2,4]triazolo[1,5-a]pyridine]: the values for the IC50 at human TLR8 and at human TLR7 were 32.4 nM and 562 nM, respectively.

Consider `CCc1cc2c(C3CCN(C4COC4)CC3)n[nH]c2cc1-c1cc(C)c2ncnn2c1` [Example 89, 6-(5-ethyl-3-(1-(oxetan-3-yl)piperidin-4-yl)-1H-indazol-6-yl)-8-methyl-[1,2,4]triazolo[1,5-a]pyridine], for which the IC50 is 0.7 nM against human TLR8 and 8.3 nM against human TLR7.

On to `Cc1cc(-c2cc3[nH]nc(C4CCC(N(C)C)CC4)c3cc2C(C)C)cn2ncnc12` (stereo not shown) [Example 114, 4-(5-isopropyl-6-(8-methyl-[1,2,4]triazolo[1,5-a]pyridin-6-yl)-1H-indazol-3-yl)-N,N-dimethylcyclohexan-1-amine], for which the values for the IC50 against human TLR7 and at human TLR9 were 0.2 nM and 6670 nM, respectively.

On to `Cc1cc(-c2cc3[nH]nc(C4CCN(CCC#N)CC4)c3cc2C(C)C)cn2ncnc12` [Example 121, 3-(4-(5-isopropyl-6-(8-methyl-[1,2,4]triazolo[1,5-a]pyridin-6-yl)-1H-indazol-3-yl)piperidin-1-yl)propanenitrile], for which the IC50 against human TLR8 is 0.1 nM; against human TLR7, 1.9 nM.

In general, IC50 refers to the midpoint of a concentration-inhibition curve.
